# Patent US20240294489A1 (Captor Therapeutics S.A., priority 2020, published 2024)
# Where two headings read alike, the source gives them in different places.
# Columns and labels:
# Format in all cases: cell-based
# Ikaros (IKZF1) = biological target: T1, Ikaros (IKZF1) (Homo sapiens, UniProt Q13422+Q96SW2); assay: Ikaros degradation assay, H929 cell line; conditions: H929 cells, 24 h; for inhibition at 10 µM / inhibition at 20 µM: NCI-H929, read-out: % of IKZF1 protein reduction
# T1 construct: Ikaros degradation in the H929 cell line was investigated; endogenous in cells; host or cells: H929
# T1 sequence (Q13422 whole entry): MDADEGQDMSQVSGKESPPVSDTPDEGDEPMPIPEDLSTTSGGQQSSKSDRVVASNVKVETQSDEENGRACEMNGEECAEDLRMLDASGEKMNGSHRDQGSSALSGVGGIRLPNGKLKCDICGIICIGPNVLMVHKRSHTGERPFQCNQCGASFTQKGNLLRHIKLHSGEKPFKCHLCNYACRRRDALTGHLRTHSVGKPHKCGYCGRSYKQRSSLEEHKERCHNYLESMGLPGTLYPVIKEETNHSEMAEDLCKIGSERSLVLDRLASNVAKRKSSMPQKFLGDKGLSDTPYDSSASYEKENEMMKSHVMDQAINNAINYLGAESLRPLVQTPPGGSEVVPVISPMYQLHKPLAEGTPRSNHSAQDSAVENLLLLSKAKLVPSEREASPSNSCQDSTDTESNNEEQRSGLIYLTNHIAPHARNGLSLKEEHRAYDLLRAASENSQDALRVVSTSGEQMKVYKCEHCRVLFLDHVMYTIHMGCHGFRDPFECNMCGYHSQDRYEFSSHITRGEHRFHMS
# T1 sequence (Q96SW2 whole entry): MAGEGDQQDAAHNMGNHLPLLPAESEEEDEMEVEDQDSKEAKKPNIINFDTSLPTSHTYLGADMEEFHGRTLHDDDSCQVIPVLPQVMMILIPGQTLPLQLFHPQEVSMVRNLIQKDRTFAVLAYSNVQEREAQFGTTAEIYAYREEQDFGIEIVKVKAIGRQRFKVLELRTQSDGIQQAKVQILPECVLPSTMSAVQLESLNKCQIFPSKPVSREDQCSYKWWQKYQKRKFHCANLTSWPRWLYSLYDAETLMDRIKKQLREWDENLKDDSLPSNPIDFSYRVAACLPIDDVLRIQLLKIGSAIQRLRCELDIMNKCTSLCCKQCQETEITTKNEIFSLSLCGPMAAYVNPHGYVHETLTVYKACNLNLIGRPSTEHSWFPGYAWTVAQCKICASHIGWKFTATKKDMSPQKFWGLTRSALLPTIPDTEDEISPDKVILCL
# T1 sequence (Q16531 whole entry partner): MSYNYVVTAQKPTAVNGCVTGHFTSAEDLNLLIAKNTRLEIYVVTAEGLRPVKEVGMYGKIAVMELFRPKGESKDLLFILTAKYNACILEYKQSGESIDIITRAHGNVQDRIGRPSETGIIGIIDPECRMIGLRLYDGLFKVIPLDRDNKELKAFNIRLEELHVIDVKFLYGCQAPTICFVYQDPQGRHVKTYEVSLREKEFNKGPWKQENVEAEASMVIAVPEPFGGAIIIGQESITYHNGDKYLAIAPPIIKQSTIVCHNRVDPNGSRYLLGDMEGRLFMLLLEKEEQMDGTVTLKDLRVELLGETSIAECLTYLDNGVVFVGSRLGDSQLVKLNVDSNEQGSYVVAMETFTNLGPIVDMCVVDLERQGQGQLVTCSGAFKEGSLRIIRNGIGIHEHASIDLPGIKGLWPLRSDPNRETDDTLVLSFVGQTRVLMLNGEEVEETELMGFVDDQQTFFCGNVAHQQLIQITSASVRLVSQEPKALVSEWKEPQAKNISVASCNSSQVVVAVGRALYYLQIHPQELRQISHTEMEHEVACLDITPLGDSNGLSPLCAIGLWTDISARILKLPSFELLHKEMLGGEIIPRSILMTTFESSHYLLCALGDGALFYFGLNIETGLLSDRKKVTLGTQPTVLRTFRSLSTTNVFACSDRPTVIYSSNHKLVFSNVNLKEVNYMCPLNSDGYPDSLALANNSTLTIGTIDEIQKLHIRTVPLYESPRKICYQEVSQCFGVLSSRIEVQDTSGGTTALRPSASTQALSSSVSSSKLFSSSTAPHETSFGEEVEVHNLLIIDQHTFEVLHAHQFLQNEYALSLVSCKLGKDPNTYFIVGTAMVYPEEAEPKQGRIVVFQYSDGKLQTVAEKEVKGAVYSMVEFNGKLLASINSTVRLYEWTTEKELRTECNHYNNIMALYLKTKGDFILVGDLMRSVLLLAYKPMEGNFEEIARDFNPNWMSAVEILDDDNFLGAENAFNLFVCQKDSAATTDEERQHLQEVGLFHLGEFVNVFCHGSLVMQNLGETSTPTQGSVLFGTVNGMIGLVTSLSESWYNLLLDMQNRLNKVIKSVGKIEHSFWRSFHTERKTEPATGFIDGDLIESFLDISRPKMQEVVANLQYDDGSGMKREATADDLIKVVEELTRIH
# Procedure: (§1) Cells were seeded on 6- or 12-well plates, and the compounds to be tested were added at the desired concentration range. […] After 24 h incubation (37° C., 5% CO2), cells were harvested, washed and cell lysates were prepared using RIPA lysis buffer. The amount of protein was determined via BCA assay, and the appropriate quantity was then loaded on the precast gel for the protein separation. After primary and secondary Ab staining, the membranes were washed and signals developed. The densitometry analysis was implemented to obtain the numeric values used later in the protein level evaluation process.
# SALL4 = biological target: T2, SALL4 (Homo sapiens, UniProt Q96SW2+Q9UJQ4); assay: SALL4 degradation assay, Kelly cell line (Western blot densitometry); conditions: Kelly cells, 24 h; for % of SALL4 protein reduction: 100 nM, average from n ≥ 2 experiments
# T2 construct: SALL4 degradation in the Kelly cell line was investigated; endogenous in cells; host or cells: Kelly
# T2 sequence (Q9UJQ4 whole entry): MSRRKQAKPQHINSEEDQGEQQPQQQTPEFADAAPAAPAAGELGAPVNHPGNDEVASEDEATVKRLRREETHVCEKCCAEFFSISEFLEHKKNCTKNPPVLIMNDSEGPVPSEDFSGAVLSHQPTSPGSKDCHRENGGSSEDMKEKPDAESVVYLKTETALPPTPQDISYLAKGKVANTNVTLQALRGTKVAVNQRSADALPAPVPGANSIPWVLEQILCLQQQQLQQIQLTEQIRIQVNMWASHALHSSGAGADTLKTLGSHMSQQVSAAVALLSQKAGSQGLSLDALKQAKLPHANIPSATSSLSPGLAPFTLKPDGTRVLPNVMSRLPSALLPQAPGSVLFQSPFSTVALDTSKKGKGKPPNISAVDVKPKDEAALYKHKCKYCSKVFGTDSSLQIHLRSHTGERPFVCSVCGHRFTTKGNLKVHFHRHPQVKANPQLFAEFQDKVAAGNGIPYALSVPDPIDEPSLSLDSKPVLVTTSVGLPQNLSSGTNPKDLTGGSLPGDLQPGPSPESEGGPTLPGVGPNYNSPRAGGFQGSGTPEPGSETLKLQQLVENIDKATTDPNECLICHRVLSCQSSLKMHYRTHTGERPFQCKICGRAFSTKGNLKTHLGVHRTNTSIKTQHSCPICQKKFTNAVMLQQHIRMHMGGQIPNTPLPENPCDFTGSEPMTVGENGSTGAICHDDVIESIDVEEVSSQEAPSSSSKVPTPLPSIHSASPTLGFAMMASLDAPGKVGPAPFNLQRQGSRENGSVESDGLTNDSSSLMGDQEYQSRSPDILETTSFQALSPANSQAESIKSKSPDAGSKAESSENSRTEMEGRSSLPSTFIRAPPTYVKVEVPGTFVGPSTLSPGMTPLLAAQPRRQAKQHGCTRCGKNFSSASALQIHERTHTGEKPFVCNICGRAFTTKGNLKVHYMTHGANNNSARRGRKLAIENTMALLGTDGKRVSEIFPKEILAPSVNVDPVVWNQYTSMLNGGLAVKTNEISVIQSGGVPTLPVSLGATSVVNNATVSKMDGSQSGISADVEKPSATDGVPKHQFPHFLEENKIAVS
# T2 sequence (Q96SW2 whole entry): as the sequence (Q96SW2 whole entry) above
# T2 sequence (Q16531 whole entry partner): as the sequence (Q16531 whole entry partner) above
# Procedure: as §1
# KG-1 cells = assay: Cell viability CTG assay, KG-1; conditions: Homo sapiens; KG-1, 72 h, 0.001-50 μM; read-out: KG-1 Geomean absolute IC50 by molecule, 72 H
# Procedure: (§2) The effect of various compounds of the invention and various reference compounds on cell viability in various cell lines was investigated, using the Cell Viability—CTG Assay Protocol below. Hep3B, Kelly, H929, KG-1 and SNU-398 cells were maintained in respective cell medium (see Table 8, below). The cells were seeded on the 96-well or 384-white plates, and the compounds to be tested were added at the desired concentration range. Compounds are diluted in DMSO, and the DMSO concentration is kept constant at 0.25% v/v across the assay plate. After 72 h incubation (37° C., 5% CO2), CellTiter-Glo® Reagent (Promega/G7570) was added to the wells. Plates are shaken for 4 minutes and incubated for 8 minutes in the dark prior to reading luminescence (LU) by using the CLARIOstar Multimode Plate Reader. The signal is proportional to the amount of ATP, which is directly proportional to the number of cells present in the culture.
# (§3) Luminescence (RLU) values were normalized to DMSO control. Dose response is assessed by non-linear regression and IC50 calculation with the average of technical duplicate of percentage inhibition. IC50 values are reported as absolute IC50 values, being the concentration of test compound at the intersection of the concentration-response curves with T/C=50%. For calculation of mean IC50 values the geometric mean is used.
# GSPT1 = biological target: T3, GSPT1 (Homo sapiens, UniProt P15170+Q96SW2); assay: GSPT1 degradation assay, Hep3B cell line; conditions: HEP3B cells, 24 h, read-out: % of GSPT1 protein reduction
# T3 construct: GSPT1 degradation in the Hep3B cell line was investigated; endogenous in cells; host or cells: Hep3B
# T3 sequence (P15170 whole entry): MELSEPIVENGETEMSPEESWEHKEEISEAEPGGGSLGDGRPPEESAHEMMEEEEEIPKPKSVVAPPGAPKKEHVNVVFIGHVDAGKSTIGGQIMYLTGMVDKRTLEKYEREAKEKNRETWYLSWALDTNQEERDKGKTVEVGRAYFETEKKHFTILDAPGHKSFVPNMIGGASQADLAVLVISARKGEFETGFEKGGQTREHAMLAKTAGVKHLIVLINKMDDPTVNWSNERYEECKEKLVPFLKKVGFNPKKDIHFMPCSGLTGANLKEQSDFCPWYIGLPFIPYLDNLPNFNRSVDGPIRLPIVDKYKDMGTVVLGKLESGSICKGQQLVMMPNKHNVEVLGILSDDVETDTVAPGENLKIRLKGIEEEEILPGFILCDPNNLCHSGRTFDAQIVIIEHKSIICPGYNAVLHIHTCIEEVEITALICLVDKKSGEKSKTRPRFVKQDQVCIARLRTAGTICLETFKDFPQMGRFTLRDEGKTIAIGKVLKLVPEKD
# T3 sequence (Q96SW2 whole entry): as the sequence (Q96SW2 whole entry) above
# T3 sequence (Q16531 whole entry partner): as the sequence (Q16531 whole entry partner) above
# Procedure: Hep3B cells were maintained in EMEM medium, supplemented with penicillin/streptomycin and 10% Fetal Bovine Serum (FBS). Cells were seeded on 6- or 12-well plates, and the compounds to be tested were added at the desired concentration range. Final DMSO concentration was 0.25%. After 24 h incubation (37° C., 5% CO2), cells were harvested, washed and cell lysates were prepared using RIPA lysis buffer. The amount of protein was determined via BCA assay, and the appropriate quantity was then loaded on the precast gel for the protein separation. After primary and secondary Ab staining, the membranes were washed and signals developed. The densitometry analysis was implemented to obtain the numeric values used later in the protein level evaluation process. Densitometry values were normalized to the loading control and calculated as [%] of the DMSO control.
# Hep3B cells = assay: Cell viability CTG assay, Hep3B; conditions: Homo sapiens, 72 h, 0.001-50 μM, read-out: Hep3B Geomean absolute IC50 by molecule, 72 H
# Procedure: as §2, §3
# H929 cells = assay: Cell viability CTG assay, H929; set-up: key to Geomean absolute IC50 by molecule, 72 H: Inactive represents IC50 > 50 μM; C represents 50 μM ≥ IC50 > 5 μM; conditions: H929, 72 h, 0.001-50 μM; for IC50: Homo sapiens, NCI-H929, read-out: Geomean absolute IC50 by molecule, 72 H
# Procedure: as §2, §3
# Kelly cells = assay: Cell viability CTG assay, Kelly; conditions: 72 h, 0.001-50 μM, read-out: Kelly Geomean absolute IC50 by molecule, 72 H
# Procedure: as §2, §3
# Aiolos (IKZF3) = biological target: T4, Aiolos (IKZF3) (Homo sapiens, UniProt Q96SW2+Q9UKT9); assay: Aiolos degradation assay, H929 cell line; conditions: H929 cells, 20 μM, 24 h
# T4 construct: Aiolos degradation in the H929 cell line was investigated; endogenous in cells; host or cells: H929
# T4 sequence (Q9UKT9 whole entry): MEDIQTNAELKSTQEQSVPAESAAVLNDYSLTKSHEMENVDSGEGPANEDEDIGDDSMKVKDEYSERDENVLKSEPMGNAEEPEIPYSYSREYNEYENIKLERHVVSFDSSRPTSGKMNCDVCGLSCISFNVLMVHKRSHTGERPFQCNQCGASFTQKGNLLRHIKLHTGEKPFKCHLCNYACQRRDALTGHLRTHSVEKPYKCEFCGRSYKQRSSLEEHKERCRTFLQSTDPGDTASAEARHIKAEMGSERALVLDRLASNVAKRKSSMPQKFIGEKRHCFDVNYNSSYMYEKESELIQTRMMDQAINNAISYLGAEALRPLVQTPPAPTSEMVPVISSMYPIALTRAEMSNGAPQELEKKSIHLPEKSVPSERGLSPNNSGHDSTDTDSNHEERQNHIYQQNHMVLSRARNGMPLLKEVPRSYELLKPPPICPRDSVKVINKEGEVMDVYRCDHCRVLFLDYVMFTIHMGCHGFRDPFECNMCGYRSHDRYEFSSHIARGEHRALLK
# T4 sequence (Q96SW2 whole entry): as the sequence (Q96SW2 whole entry) above
# T4 sequence (Q16531 whole entry partner): as the sequence (Q16531 whole entry partner) above
# Procedure: as §1
% of SALL4 protein reduction (SALL4),IC50 (Hep3B cells),"Geomean absolute IC50 by molecule, 72 H (H929 cells)",inhibition at 20 µM (Ikaros (IKZF1); 20 uM),Compound,IC50 (KG-1 cells),IC50 (Kelly cells),further results
>80%,≤ 0.1 µM,–,–,"[2H]C([2H])(N)c1ccc2c(c1)CN(C1CCC(=O)NC1=O)C2=O (stereo not shown) [Compound 2, 3-(5-(aminomethyl-d2)-1-oxoisoindolin-2-yl)piperidine-2,6-dione]",0.1 to 1 µM,0.1 to 1 µM,inhibition at 10 µM (Ikaros (IKZF1); 10 uM): 0 to 24%; inhibition at 10 µM (GSPT1; 10 uM): 80 to 100%; IC50 (H929 cells): 5 to 50 µM
>80%,≤ 0.1 µM,Inactive,–,"CC(=O)Oc1cc(C)cc(C)c1C(C)(C)CC(=O)NCc1ccc2c(c1)CN(C1CCC(=O)NC1=O)C2=O (stereo not shown) [Compound 21, 2-[1-({[2-(2,6-dioxopiperidin-3-yl)-1-oxo-2,3-dihydro-1H-isoindol-5-yl]methyl}carbamoyl)-2-methylpropan-2-yl]-3,5-dimethylphenyl acetate]",1 to 5 µM,1 to 5 µM,–
–,≤ 0.1 µM,–,–,"CC(=O)Oc1ccc(COC(=O)NCc2ccc3c(c2)CN(C2CCC(=O)NC2=O)C3=O)cc1 (stereo not shown) [Compound 22, 4-(((((2-(2,6-dioxopiperidin-3-yl)-1-oxoisoindolin-5-yl)methyl)carbamoyl)oxy)methyl)phenyl acetate]",≤ 0.1 µM,0.1 to 1 µM,IC50 (H929 cells): 5 to 50 µM
>80%,≤ 0.1 µM,Inactive,0 to 24%,"CC(OC(=O)NCc1ccc2c(c1)CN(C1CCC(=O)NC1=O)C2=O)OC(=O)C(C)C (stereo not shown) [Compound 23, 1-((((2-(2,6-dioxopiperidin-3-yl)-1-oxoisoindolin-5-yl)methyl)carbamoyl)oxy)ethyl isobutyrate]",–,–,–
–,≤ 0.1 µM,Inactive,0 to 24%,"Cc1oc(=O)oc1COC(=O)NCc1ccc2c(c1)CN(C1CCC(=O)NC1=O)C2=O (stereo not shown) [Compound 24, (5-methyl-2-oxo-2H-1,3-dioxol-4-yl)methyl N-{[2-(2,6-dioxopiperidin-3-yl)-1-oxo-2,3-dihydro-1H-isoindol-5-yl]methyl}carbamate]",≤ 0.1 µM,1 to 5 µM,–
–,0.1 to 1 µM,Inactive,0 to 24%,"NCC(=O)NCc1ccc2c(c1)CN(C1CCC(=O)NC1=O)C2=O (stereo not shown) [Compound 25, 2-amino-N-((2-(2,6-dioxopiperidin-3-yl)-1-oxoisoindolin-5-yl)methyl)acetamide]",1 to 5 µM,1 to 5 µM,–
>80%,0.1 to 1 µM,Inactive,–,"N[C@@H](Cc1cnc[nH]1)C(=O)NCc1ccc2c(c1)CN([C@@H]1CCC(=O)NC1=O)C2=O [Compound 27, (S)-2-amino-N-((2-((R)-2,6-dioxopiperidin-3-yl)-1-oxoisoindolin-5-yl)methyl)-3-(1H-imidazol-4-yl)propanamide]",0.1 to 1 µM,0.1 to 1 µM,inhibition at 10 µM (Ikaros (IKZF1); 10 uM): 0 to 24%; % of IKZF3 protein reduction (Aiolos (IKZF3)): C (C represents 0-24% of IKZF1 protein reduction); inhibition at 1 µM (GSPT1): 80 to 100%
–,0.1 to 1 µM,Inactive,–,"N[C@@H](Cc1cnc[nH]1)C(=O)NCc1ccc2c(c1)CN([C@H]1CCC(=O)NC1=O)C2=O [Compound 28, (S)-2-amino-N-((2-((S)-2,6-dioxopiperidin-3-yl)-1-oxoisoindolin-5-yl)methyl)-3-(1H-imidazol-4-yl)propanamide]",0.1 to 1 µM,0.1 to 1 µM,inhibition at 10 µM (Ikaros (IKZF1); 10 uM): 0 to 24%; % of IKZF3 protein reduction (Aiolos (IKZF3)): C (C represents 0-24% of IKZF1 protein reduction); inhibition at 1 µM (GSPT1): 80 to 100%
–,–,–,0 to 24%,"CC(C)(C)OC(=O)N[C@@H](Cc1cnc[nH]1)C(=O)NCc1ccc2c(c1)CN([C@@H]1CCC(=O)NC1=O)C2=O [Compound 29, tert-butyl ((S)-1-(((2-((R)-2,6-dioxopiperidin-3-yl)-1-oxoisoindolin-5-yl)methyl)amino)-3-(1H-imidazol-4-yl)-1-oxopropan-2-yl)carbamate]",–,–,% of IKZF3 protein reduction (Aiolos (IKZF3)): C (C represents 0-24% of IKZF1 protein reduction)
–,0.1 to 1 µM,Inactive,0 to 24%,"CC(C)C(NC(=O)OC(C)(C)C)C(=O)NCc1ccc2c(c1)CN(C1CCC(=O)NC1=O)C2=O (stereo not shown) [Compound 31, tert-butyl (1-(((2-(2,6-dioxopiperidin-3-yl)-1-oxoisoindolin-5-yl)methyl)amino)-3-methyl-1-oxobutan-2-yl)carbamate]",1 to 5 µM,1 to 5 µM,–
–,≤ 0.1 µM,Inactive,0 to 24%,"NC(Cc1c[nH]c2ccccc12)C(=O)NCc1ccc2c(c1)CN(C1CCC(=O)NC1=O)C2=O (stereo not shown) [Compound 37, 2-amino-N-((2-(2,6-dioxopiperidin-3-yl)-1-oxoisoindolin-5-yl)methyl)-3-(1H-indol-3-yl)propanamide]",0.1 to 1 µM,0.1 to 1 µM,–
–,0.1 to 1 µM,Inactive,0 to 24%,"C[C@@H](O)[C@H](N)C(=O)NCc1ccc2c(c1)CN(C1CCC(=O)NC1=O)C2=O (stereo partly drawn) [Compound 39, (2S,3R)-2-amino-N-((2-(2,6-dioxopiperidin-3-yl)-1-oxoisoindolin-5-yl)methyl)-3-hydroxybutanamide]",1 to 5 µM,1 to 5 µM,–
–,–,–,–,"CCCCCC(=O)NCc1ccc2c(c1)CN(C1CCC(=O)NC1=O)C2=O (stereo not shown) [Compound 100, reference compound]",–,–,"inhibition at 10 µM (Ikaros (IKZF1); 10 uM, numeric values): 52%; % of IKZF3 protein reduction (Aiolos (IKZF3); numeric values): 52%"
–,–,–,–,"Nc1cccc2c1C(=O)N(C1CCC(=O)NC1=O)C2=O (stereo not shown) [Pomalidomide, pomalidomide, reference compound]",–,–,"% of IKZF1 protein reduction (Ikaros (IKZF1); 10 uM, numeric values): 86%; % of IKZF1 protein reduction (Ikaros (IKZF1); 20 uM, numeric values): 91%; % of IKZF3 protein reduction (Aiolos (IKZF3); numeric values): 87%; IC50 (H929 cells; numeric values): 0.061 µM"
53%,–,–,–,"O=C1CCC(N2C(=O)c3ccccc3C2=O)C(=O)N1 (stereo not shown) [Thalidomide, reference compound]",–,–,"degradation of SALL4 (SALL4; 0.01 μM, FIG. 1): lower activity"
